Type in all cases: functional
In one test the test system is LOX IMVI. The test is described as follows: Cytotoxicity against human LOX IMVI cells assessed as inhibition of cell growth incubated for 24 hrs by resazurin staining based analysis. A general note: Resazurin is reduced to fluorescent resorufin, in cell work by metabolically active cells.
The test system of another test is SK-MEL-28. As to the kind of experiment: Cytotoxicity against human SK-MEL-28 cells assessed as inhibition of cell growth incubated for 24 hrs by resazurin staining based analysis. The conditions noted are these: SK-MEL-28, 24 h.
A further test deals with SK-MEL-5. The test is described as follows: Cytotoxicity against human SK-MEL-5 cells assessed as inhibition of cell growth incubated for 24 hrs by resazurin staining based analysis. The note with it: SK-MEL-5, 24 h.
The subject of the next test is B16-F10. The test is described as follows: Cytotoxicity against mouse B16-F10 cells assessed as inhibition of cell growth incubated for 24 hrs by resazurin staining based analysis. The conditions noted are these: B16-F10, 24 h.
The subject of the next test is SK-MEL-25. As to the kind of experiment: Cytotoxicity against human SK-MEL-25 cells assessed as inhibition of cell growth incubated for 24 hrs by resazurin staining based analysis. The note with it: SK-MEL-25, 24 h.

Take `COc1ccc(Cl)cc1Nc1nc2c(s1)C1=CC[C@@H]3[C@H](CC[C@]4(C)C(=O)CC[C@@H]34)[C@@]1(C)CC2`: the IC50 is 3 µM in the test with LOX IMVI; 4.8 µM with SK-MEL-28; over 20 µM in the test on SK-MEL-5; 3.6 µM in the test with B16-F10; over 20 µM in the test with SK-MEL-25.

In the case of `C#C[C@]1(O)CC[C@H]2[C@@H]3CC=C4c5sc(Nc6cc(Cl)ccn6)nc5CC[C@]4(C)[C@H]3CC[C@@]21C`, the IC50 turned out to be 3 µM in the test on LOX IMVI; 2.8 µM with SK-MEL-28; 3.6 µM with SK-MEL-5; 3.8 µM in the test with B16-F10; 4.4 µM with SK-MEL-25.

For `Cc1cc(C)cc(Nc2nc3c(s2)C2=CC[C@@H]4[C@H](CC[C@]5(C)C(=O)CC[C@@H]45)[C@@]2(C)CC3)c1`, the 50% inhibitory concentration (IC50) is 2.5 µM with LOX IMVI; 2.5 µM in the test with SK-MEL-28; over 20 µM in the test on SK-MEL-5; 8 µM with B16-F10; 3.2 µM in the test on SK-MEL-25.

Turning to `C#C[C@]1(O)CC[C@H]2[C@@H]3CC=C4c5sc(Nc6ccc(OC)cc6OC)nc5CC[C@]4(C)[C@H]3CC[C@@]21C`, the IC50 in the test with LOX IMVI was 3.4 µM; in the test with SK-MEL-28, 4.7 µM; in the test with SK-MEL-5, 3 µM; in the test with B16-F10, 7.7 µM; in the test on SK-MEL-25 it was 3.3 µM.

In the case of `C#C[C@]1(O)CC[C@H]2[C@@H]3CC=C4c5sc(Nc6ccc(F)cn6)nc5CC[C@]4(C)[C@H]3CC[C@@]21C`, the half-maximal inhibitory concentration (IC50) with LOX IMVI was determined as 5.4 µM; in the test on SK-MEL-28, 3.5 µM; with SK-MEL-5 it was 2.8 µM; in the test on B16-F10 it was 3.1 µM; in the test with SK-MEL-25, 3.2 µM.

Consider `C#C[C@]1(O)CC[C@H]2[C@@H]3CC=C4c5sc(Nc6cc(C)cc(C)n6)nc5CC[C@]4(C)[C@H]3CC[C@@]21C`, for which the half-maximal inhibitory concentration (IC50) was found to be 4.1 µM in the test on LOX IMVI; 5.5 µM with SK-MEL-28; 2.5 µM in the test with SK-MEL-5; 10.2 µM in the test with B16-F10; 6.5 µM in the test with SK-MEL-25.

`C[C@]12CCc3nc(Nc4ccccc4F)sc3C1=CC[C@@H]1[C@@H]2CC[C@]2(C)C(=O)CC[C@@H]12`: the IC50 in the test on LOX IMVI was 6.7 µM; in the test with SK-MEL-28, 6.4 µM; in the test on SK-MEL-5 it was over 20 µM; in the test on B16-F10, 5.4 µM; with SK-MEL-25, over 20 µM.

`C[C@]12CCc3nc(Nc4ccc(F)cc4)sc3C1=CC[C@@H]1[C@@H]2CC[C@]2(C)C(=O)CC[C@@H]12`: the IC50 stood at 1.8 µM in the test with LOX IMVI; 3.4 µM in the test with SK-MEL-28; 6.4 µM in the test on SK-MEL-5; 4.5 µM in the test with B16-F10; 1.4 µM with SK-MEL-25.

With `C[C@]12CCc3nc(Nc4ncccn4)sc3C1=CC[C@@H]1[C@@H]2CC[C@]2(C)C(=O)CC[C@@H]12`, the half-maximal inhibitory concentration (IC50) is over 20 µM in the test on LOX IMVI; over 20 µM in the test on SK-MEL-28; 1.3 µM in the test on SK-MEL-5; 3 µM in the test on B16-F10; 1.8 µM in the test on SK-MEL-25.

As for `Cc1ccc(Nc2nc3c(s2)C2=CC[C@@H]4[C@H](CC[C@]5(C)C(=O)CC[C@@H]45)[C@@]2(C)CC3)c(C)c1`, the IC50 in the test with LOX IMVI is 3.6 µM; in the test with SK-MEL-28, 1.9 µM; with SK-MEL-5, 6.6 µM; with B16-F10, 6.1 µM; in the test with SK-MEL-25, 4.4 µM.

On to `C#C[C@]1(O)CC[C@H]2[C@@H]3CC=C4c5sc(Nc6cc(C)cc(C)c6)nc5CC[C@]4(C)[C@H]3CC[C@@]21C`, for which the 50% inhibitory concentration (IC50) turned out to be 3.6 µM in the test on LOX IMVI; 5 µM in the test with SK-MEL-28; 3.9 µM in the test on SK-MEL-5; 5.8 µM in the test with B16-F10; 3.8 µM in the test on SK-MEL-25.

Consider `C[C@]12CCc3nc(Nc4ccc(F)cc4F)sc3C1=CC[C@@H]1[C@@H]2CC[C@]2(C)C(=O)CC[C@@H]12`, for which the half-maximal inhibitory concentration (IC50) is 2.8 µM in the test with LOX IMVI; 5.3 µM with SK-MEL-28; 11.5 µM in the test on SK-MEL-5; 5.5 µM in the test with B16-F10; over 20 µM in the test with SK-MEL-25.

As for `Cc1ccc(Nc2nc3c(s2)C2=CC[C@@H]4[C@H](CC[C@]5(C)C(=O)CC[C@@H]45)[C@@]2(C)CC3)cc1`, the IC50 in the test on LOX IMVI was 4.2 µM; with SK-MEL-28, 4 µM; with SK-MEL-5, 7.3 µM; with B16-F10 it was 4.9 µM; in the test with SK-MEL-25, 4.3 µM.

As to `C#C[C@]1(O)CC[C@H]2[C@@H]3CC=C4c5sc(Nc6ccc(Cl)cn6)nc5CC[C@]4(C)[C@H]3CC[C@@]21C`, the IC50 came to 5.4 µM in the test with LOX IMVI; 3.7 µM with SK-MEL-28; 4.8 µM with SK-MEL-5; 3 µM with B16-F10; 8.3 µM with SK-MEL-25.

Consider `C#C[C@]1(O)CC[C@H]2[C@@H]3CC=C4c5sc(-c6ccc7c(c6)OCO7)nc5CC[C@]4(C)[C@H]3CC[C@@]21C`, for which the IC50 in the test with LOX IMVI is over 20 µM; in the test on SK-MEL-28, 6.1 µM; in the test with SK-MEL-5, 4.9 µM; in the test on B16-F10, 13 µM; in the test with SK-MEL-25, 4.2 µM.

Regarding `C#C[C@]1(O)CC[C@H]2[C@@H]3CC=C4c5sc(-c6cccc(F)c6)nc5CC[C@]4(C)[C@H]3CC[C@@]21C`, the IC50 with LOX IMVI is 15.3 µM; in the test on SK-MEL-28, 14 µM; with SK-MEL-5, 20 µM; in the test with B16-F10, 8.5 µM; in the test on SK-MEL-25 it was over 20 µM.

In the case of `C#C[C@]1(O)CC[C@H]2[C@@H]3CC=C4c5sc(Nc6cccc(Cl)n6)nc5CC[C@]4(C)[C@H]3CC[C@@]21C`, the half-inhibitory concentration (IC50) is 5.5 µM with LOX IMVI; 2.4 µM with SK-MEL-28; 2.7 µM with SK-MEL-5; 3.8 µM in the test on B16-F10; 5.7 µM in the test on SK-MEL-25.

As for `C#C[C@]1(O)CC[C@H]2[C@@H]3CC=C4c5sc(-c6cccc(O)c6)nc5CC[C@]4(C)[C@H]3CC[C@@]21C`, the half-maximal inhibitory concentration (IC50) was 4.1 µM with LOX IMVI; 6 µM with SK-MEL-28; 3.5 µM in the test with SK-MEL-5; 2.9 µM with B16-F10; 6.6 µM in the test with SK-MEL-25.

`C#C[C@]1(O)CC[C@H]2[C@@H]3CC=C4c5sc(-c6ccc(F)cc6)nc5CC[C@]4(C)[C@H]3CC[C@@]21C`: the IC50 in the test with LOX IMVI is 15.6 µM; with SK-MEL-28, over 20 µM; with SK-MEL-5 it was over 20 µM; in the test on B16-F10, 13.9 µM; with SK-MEL-25, over 20 µM.

Regarding `C#C[C@]1(O)CC[C@H]2[C@@H]3CC=C4c5sc(Nc6cccc(C)n6)nc5CC[C@]4(C)[C@H]3CC[C@@]21C`, the concentration for half-maximal inhibition (IC50) in the test with LOX IMVI came out at 2.8 µM; in the test with SK-MEL-28 it was 3 µM; in the test with SK-MEL-5 it was 3.9 µM; in the test on B16-F10, 6.5 µM; in the test with SK-MEL-25, 5.1 µM.

With `C[C@]12CCc3nc(NCCc4ccccc4)sc3C1=CC[C@@H]1[C@@H]2CC[C@]2(C)C(=O)CC[C@@H]12`, the IC50 is 9 µM in the test with LOX IMVI; 5.4 µM in the test on SK-MEL-28; 5.2 µM with SK-MEL-5; 6.1 µM in the test with B16-F10; over 20 µM with SK-MEL-25.

Regarding `C#C[C@]1(O)CC[C@H]2[C@@H]3CC=C4c5sc(Nc6cc(OC)ccc6Cl)nc5CC[C@]4(C)[C@H]3CC[C@@]21C`, the IC50 with LOX IMVI worked out at 3.2 µM; in the test on SK-MEL-28, 3.4 µM; in the test on SK-MEL-5, 4.8 µM; in the test on B16-F10, 9.7 µM; with SK-MEL-25 it was 3.1 µM.

As to `C[C@]12CCc3nc(Nc4ccc(OC(F)(F)F)cc4)sc3C1=CC[C@@H]1[C@@H]2CC[C@]2(C)C(=O)CC[C@@H]12`, the 50% inhibitory concentration (IC50) in the test on LOX IMVI is 9.3 µM; in the test with SK-MEL-28, over 20 µM; in the test on SK-MEL-5 it was over 20 µM; in the test on B16-F10 it was 11.7 µM; in the test with SK-MEL-25, 12.5 µM.

With `C[C@]12CCc3nc(Nc4ccccc4)sc3C1=CC[C@@H]1[C@@H]2CC[C@]2(C)C(=O)CC[C@@H]12`, the IC50 in the test with LOX IMVI came to 2.7 µM; with SK-MEL-28, 6.1 µM; in the test with SK-MEL-5 it was 10.6 µM; in the test on B16-F10 it was 5.8 µM; with SK-MEL-25, 6.8 µM.

On to `C#C[C@]1(O)CC[C@H]2[C@@H]3CC=C4c5sc(Nc6ccc(C)cn6)nc5CC[C@]4(C)[C@H]3CC[C@@]21C`, for which the IC50 with LOX IMVI was 3.6 µM; with SK-MEL-28 it was 4.6 µM; with SK-MEL-5 it was 3.7 µM; in the test with B16-F10, 7.7 µM; with SK-MEL-25, 4.8 µM.

With `C[C@]12CCc3nc(Nc4cccc(F)c4)sc3C1=CC[C@@H]1[C@@H]2CC[C@]2(C)C(=O)CC[C@@H]12`, the 50% inhibitory concentration (IC50) came out at 1.6 µM in the test on LOX IMVI; 4.5 µM in the test with SK-MEL-28; 6.7 µM in the test on SK-MEL-5; 2.7 µM with B16-F10; 4.2 µM with SK-MEL-25.

Regarding `C#C[C@]1(O)CC[C@H]2[C@@H]3CC=C4c5sc(Nc6cc(OC)ccc6OC)nc5CC[C@]4(C)[C@H]3CC[C@@]21C`, the IC50 is 2.4 µM in the test with LOX IMVI; 5 µM with SK-MEL-28; 3.5 µM in the test with SK-MEL-5; 7.2 µM in the test on B16-F10; 3.4 µM with SK-MEL-25.

Regarding `C[C@]12CCc3nc(Nc4cccc(O)c4)sc3C1=CC[C@@H]1[C@@H]2CC[C@]2(C)C(=O)CC[C@@H]12`, the IC50 in the test on LOX IMVI is 2.2 µM; in the test with SK-MEL-28, 12.6 µM; in the test on SK-MEL-5 it was over 20 µM; with B16-F10 it was 6.7 µM; in the test with SK-MEL-25, 4.8 µM.

As for `C#C[C@]1(O)CC[C@H]2[C@@H]3CC=C4c5sc(Nc6ncccn6)nc5CC[C@]4(C)[C@H]3CC[C@@]21C`, the IC50 in the test on LOX IMVI was determined as 7.8 µM; with SK-MEL-28, 2.8 µM; with SK-MEL-5, 4.9 µM; in the test with B16-F10 it was 13.5 µM; in the test on SK-MEL-25 it was 5.7 µM.

Consider `C#C[C@]1(O)CC[C@H]2[C@@H]3CC=C4c5sc(Nc6ccccn6)nc5CC[C@]4(C)[C@H]3CC[C@@]21C`, for which the half-inhibitory concentration (IC50) in the test with LOX IMVI came to 7.5 µM; in the test with SK-MEL-28 it was 3.4 µM; in the test on SK-MEL-5 it was 2.6 µM; in the test on B16-F10, 7.6 µM; in the test with SK-MEL-25, 4 µM.

One may read the IC50 as the concentration that inhibits the measured activity by half.

Values taken from ChEMBL document CHEMBL6182831, “Thiazole-fused androstenone and ethisterone derivatives: potent β- and γ-actin cytoskeleton inhibitors to treat melanoma tumors” (RSC Med Chem, 2025).
